# Like-named read-outs stand apart in the source and are kept apart here.
# T1: TspO (tryptophan-rich sensory protein) (Cereibacter sphaeroides, UniProt Q9RFC8)
# T1 construct: C-terminal His6 tag, expressed in E. coli BL21(DE3), purified in DDM
# T1 sequence (Q9RFC8 1-158): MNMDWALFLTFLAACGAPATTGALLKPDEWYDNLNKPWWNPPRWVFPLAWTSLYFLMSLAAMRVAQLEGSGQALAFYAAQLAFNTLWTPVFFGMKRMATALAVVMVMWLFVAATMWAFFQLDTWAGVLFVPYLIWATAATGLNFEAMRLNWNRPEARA
# Key:
# [1] = molecular target: T1, TspO (tryptophan-rich sensory protein); assay: intrinsic tryptophan fluorescence quenching titration, purified protein in DDM; type: binding
# [2] = molecular target: the molecule itself; assay: native gel or EMSA
Molecule,Kd [1] [µM],other results
"C=CC1=C(C)c2cc3[nH]c(cc4nc(cc5[nH]c(cc1n2)c(C)c5CCC(=O)O)C(CCC(=O)O)=C4C)c(C)c3C=C [PPIX, protoporphyrin IX]",8.6 ± 0.6,–
"CC1=C(CCC(=O)O)c2cc3[nH]c(cc4nc(cc5[nH]c(cc1n2)c(CCC(=O)O)c5C)C(C)=C4CCC(=O)O)c(CCC(=O)O)c3C [cPPIII, coproporphyrin III]",–,Kd ([1]; read-out: Kd): 17.9 ± 1.7 µM
C=CC1=C(C)C2=Cc3c(C=C)c(C)c4[n]3[Fe]([Cl])[n]3c(c(C)c(CCC(=O)O)c3=CC3=NC(=C4)C(C)=C3CCC(=O)O)=CC1=N2 [hemin],10 ± 2.5,–
"tryptophan-rich sensory protein (TspO) from Rhodobacter sphaeroides (natural protein, UniProt Q9RFC8 1-158, looked up, also called rsTspO; TspO-His6; source: E. coli BL21(DE3), pET29, purified in DDM (NiNTA-agarose, gel filtration)) MNMDWALFLTFLAACGAPATTGALLKPDEWYDNLNKPWWNPPRWVFPLAWTSLYFLMSLAAMRVAQLEGSGQALAFYAAQLAFNTLWTPVFFGMKRMATALAVVMVMWLFVAATMWAFFQLDTWAGVLFVPYLIWATAATGLNFEAMRLNWNRPEARA",–,stoichiometry N [2]: 2

# Reference: paper PMC2911597, “Three-Dimensional Structure of TspO by Electron Cryomicroscopy of Helical Crystals” (Structure(London, England:1993), 2010)
